Source: patent publication US20230085307A1, “PYRIDAZINONE COMPOUND AND HERBICIDE” (NISSAN CHEMICAL CORPORATION, priority 2019, published 2023)

Assays:
[1] = test system: persian speedwell; test: Test Example 4: herbicidal effect by soil treatment (Table 19, symbol R); format: in vivo, Persian speedwell (Veronica persica); settings: amount of applied herbicide 320 g/ha
Procedure, shortened: (§1)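 Soil-surface application: an emulsion agent diluted with water to the predetermined dose is sprayed uniformly over seeds lying under roughly 1.5 cm of sterilized diluvial soil. Boxes stay in a greenhouse at 25° C. to 30° C. Three weeks later, each species is graded on previously defined criteria.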

[2] = test system: barnyard grass; test: Test Example 3: herbicidal effect by foliage application, Wagner pot (Table 18, symbol H); format: in vivo, barnyard grass (Echinochloa crus-galli); settings: for herbicidal effect on barnyard grass (H): 320 g/ha
Procedure, shortened: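 Plants were sown in alluvial soil held under 0.1–0.5 cm standing water and grown 14 days in a greenhouse at 25–30 °C. An emulsifiable formulation, water-diluted to the set dose, was then sprayed onto the foliage, and effects were scored three weeks later using previously defined criteria.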

[3] = test system: chickweed; test: Test Example 5: herbicidal effect by foliage application, plastic box (Table 20, symbol P); format: in vivo, common chickweed (Stellaria media); settings: 320 g/ha; for herbicidal effect on P: chickweed (evaluation grade 0-5): foliage application after 14-day growth, evaluated three weeks after application; for P: chickweed, herbicidal effect grade: foliage application, three weeks after application
Procedure, shortened: (§2)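 Sow seeds spot-wise in sterilized diluvial soil; cover with ~1.5 cm soil. Grow 14 days in greenhouse, 25° C. to 30° C. Spray foliage with emulsion diluted to predetermined amount. Rate effect after 3 weeks.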

[4] = test system: redroot pigweed; test: Test Example 5: herbicidal effect by foliage application, plastic box (Table 20, symbol N); format: in vivo, redroot pigweed (Amaranthus retroflexus); settings: 320 g/ha; for herbicidal effect on N: redroot pigweed (evaluation grade 0-5): foliage application after 14-day growth, evaluated three weeks after application; for N: redroot pigweed, herbicidal effect grade: foliage application, three weeks after application
Procedure, shortened: as §2

[5] = test system: windgrass; test: Test Example 4: herbicidal effect by soil treatment (Table 19, symbol L); format: in vivo, windgrass (Apera spica-venti); settings: amount of applied herbicide 320 g/ha
Procedure, shortened: as §1

[6] = test system: velvetleaf; test: Test Example 4: herbicidal effect by soil treatment (Table 19, symbol M); format: in vivo, velvetleaf (Abutilon theophrasti); settings: amount of applied herbicide 320 g/ha
Procedure, shortened: as §1

[7] = test system: barnyard grass; test: Test Example 4: herbicidal effect by soil treatment (Table 19, symbol H); format: in vivo, barnyard grass (Echinochloa crus-galli); settings: amount of applied herbicide 320 g/ha
Procedure, shortened: as §1

[8] = test system: Italian ryegrass; test: Test Example 4: herbicidal effect by soil treatment (Table 19, symbol K); format: in vivo, Italian ryegrass (Lolium multiflorum); settings: amount of applied herbicide 320 g/ha
Procedure, shortened: as §1

[9] = test system: late watergrass; test: Test Example 2: herbicidal activity, application during weed generation under submerged conditions (Table 17, symbol A); format: in vivo, late watergrass (Echinochloa oryzicola); settings: AAH 320 g/ha; application during weed generation, submerged conditions
Procedure, shortened: (§3)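 Effect on each weed is rated three weeks post-treatment, using the same scoring criteria as the preceding test. Plants grow from mixed-sown seed in flooded alluvial soil (4 cm water) at 25° C. to 30° C., and are treated at one to two leaves with diluted emulsion dropped onto the water.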

[10] = test system: oval-leafed pondweed; test: Test Example 2: herbicidal activity, application during weed generation under submerged conditions (Table 17, symbol C); format: in vivo, oval-leafed pondweed (Monochoria vaginalis); settings: AAH 320 g/ha; application during weed generation, submerged conditions
Procedure, shortened: as §3

[11] = test system: green foxtail; test: Test Example 5: herbicidal effect by foliage application, plastic box (Table 20, symbol G); format: in vivo, green foxtail (Setaria viridis); settings: 320 g/ha; for herbicidal effect on G: green foxtail (evaluation grade 0-5): foliage application after 14-day growth, evaluated three weeks after application; for G: green foxtail, herbicidal effect grade: foliage application, three weeks after application
Procedure, shortened: as §2

[12] = test system: late watergrass; test: Test Example 1: herbicidal activity, application before weed generation under submerged conditions (Table 16, symbol A); format: in vivo, late watergrass (Echinochloa oryzicola); settings: amount of applied herbicide 320 g/ha
Procedure, shortened: (§4)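 Alluvial soil was flooded to 4 cm depth, weed seeds were sown mixed and 2.5-leaf rice seedlings were transplanted. On sowing day, the compound's emulsion, diluted in water to a set dose, was applied to the water surface. Plants grew at 25–30 °C and were scored 0–5 after three weeks.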

[13] = test system: lambsquarters; test: Test Example 4: herbicidal effect by soil treatment (Table 19, symbol O); format: in vivo, lambsquarters (Chenopodium album); settings: amount of applied herbicide 320 g/ha
Procedure, shortened: as §1

[14] = test system: windgrass; test: Test Example 5: herbicidal effect by foliage application, plastic box (Table 20, symbol L); format: in vivo, windgrass (Apera spica-venti); settings: 320 g/ha; for herbicidal effect on L: windgrass (evaluation grade 0-5): foliage application after 14-day growth, evaluated three weeks after application; for L: windgrass, herbicidal effect grade: foliage application, three weeks after application
Procedure, shortened: as §2

[15] = test system: Japanese bulrush; test: Test Example 1: herbicidal activity, application before weed generation under submerged conditions (Table 16, symbol B); format: in vivo, Japanese bulrush (Schoenoplectus juncoides); settings: amount of applied herbicide 320 g/ha
Procedure, shortened: as §4

[16] = test system: chickweed; test: Test Example 4: herbicidal effect by soil treatment (Table 19, symbol P); format: in vivo, common chickweed (Stellaria media); settings: amount of applied herbicide 320 g/ha
Procedure, shortened: as §1

[17] = test system: persian speedwell; test: Test Example 5: herbicidal effect by foliage application, plastic box (Table 20, symbol R); format: in vivo, Persian speedwell (Veronica persica); settings: 320 g/ha; for herbicidal effect on R: persian speedwell (evaluation grade 0-5): foliage application after 14-day growth, evaluated three weeks after application; for R: persian speedwell, herbicidal effect grade: foliage application, three weeks after application
Procedure, shortened: as §2

SMILES | Herbicidal effect by soil treatment, R: persian speedwell [1] | herbicidal effect on barnyard grass (H) [2] | herbicidal effect on P: chickweed (evaluation grade 0-5) [3] | herbicidal effect on N: redroot pigweed (evaluation grade 0-5) [4] | Herbicidal effect by soil treatment, L: windgrass [5] | Herbicidal effect by soil treatment, M: velvetleaf [6] | Herbicidal effect by soil treatment, H: barnyard grass [7] | Herbicidal effect by soil treatment, K: Italian ryegrass [8] | herbicidal effect rating, A: late watergrass [9] | herbicidal effect rating, C: oval-leafed pondweed [10] | herbicidal effect on G: green foxtail (evaluation grade 0-5) [11] | Herbicidal effect, A: late watergrass [12] | Herbicidal effect by soil treatment, O: lambsquarters [13] | herbicidal effect on L: windgrass (evaluation grade 0-5) [14] | Herbicidal effect, B: Japanese bulrush [15] | Herbicidal effect by soil treatment, P: chickweed [16] | herbicidal effect on R: persian speedwell (evaluation grade 0-5) [17] | P: chickweed, herbicidal effect grade [3] | N: redroot pigweed, herbicidal effect grade [4] | G: green foxtail, herbicidal effect grade [11] | further results
CCCC(=O)Oc1c(C)nn(C)c(=O)c1-c1c(-c2ccc(OC(F)(F)F)cc2)sc2cc(F)ccc12 [3-144] | 0 (Herbicidal rate of 5% or less (almost no effect)) | 5 (Herbicidal rate of 90% or more (almost completely withered)) | 5 (Herbicidal rate of 90% or more (almost completely withered)) | 5 (Herbicidal rate of 90% or more (almost completely withered)) | 0 (Herbicidal rate of 5% or less (almost no effect)) | 0 (Herbicidal rate of 5% or less (almost no effect)) | 3 (Herbicidal rate of 40% or more and less than 70%) | 0 (Herbicidal rate of 5% or less (almost no effect)) | 2 (Herbicidal rate of 20% or more and less than 40%) | 2 (Herbicidal rate of 20% or more and less than 40%) | 5 (Herbicidal rate of 90% or more (almost completely withered)) | 5 (Herbicidal rate of 90% or more (almost completely withered)) | 3 (Herbicidal rate of 40% or more and less than 70%) | 0 (Herbicidal rate of 5% or less (almost no effect)) | 3 (Herbicidal rate of 40% or more and less than 70%) | 0 (Herbicidal rate of 5% or less (almost no effect)) | 5 (Herbicidal rate of 90% or more (almost completely withered)) | – | – | – | –
CCOc1ccccc1-c1sc2cc(C)ccc2c1-c1c(O)c(C)nn(C)c1=O [3-053] | – | 5 (Herbicidal rate of 90% or more (almost completely withered)) | – | – | – | – | – | – | 3 (Herbicidal rate of 40% or more and less than 70%) | 3 (Herbicidal rate of 40% or more and less than 70%) | – | 5 (Herbicidal rate of 90% or more (almost completely withered)) | – | – | 5 (Herbicidal rate of 90% or more (almost completely withered)) | – | – | 5 (Herbicidal rate of 90% or more (almost completely withered)) | 5 (Herbicidal rate of 90% or more (almost completely withered)) | 5 (Herbicidal rate of 90% or more (almost completely withered)) | R: persian speedwell, herbicidal effect grade [1]: 5 (Herbicidal rate of 90% or more (almost completely withered)); L: windgrass, herbicidal effect grade [5]: 5 (Herbicidal rate of 90% or more (almost completely withered)); M: velvetleaf, herbicidal effect grade [6]: 0 (Herbicidal rate of 5% or less (almost no effect)); H: barnyard grass, herbicidal effect grade [7]: 0 (Herbicidal rate of 5% or less (almost no effect)); K: Italian ryegrass, herbicidal effect grade [8]: 4 (Herbicidal rate of 70% or more and less than 90%); O: lambsquarters, herbicidal effect grade [13]: 4 (Herbicidal rate of 70% or more and less than 90%); L: windgrass, herbicidal effect grade [14]: 5 (Herbicidal rate of 90% or more (almost completely withered)); P: chickweed, herbicidal effect grade [16]: 4 (Herbicidal rate of 70% or more and less than 90%); R: persian speedwell, herbicidal effect grade [17]: 5 (Herbicidal rate of 90% or more (almost completely withered))
CCOc1ccccc1-c1sc2cc(F)ccc2c1-c1c(O)c(C)nn(C)c1=O [3-006] | – | – | – | – | – | – | – | – | 3 (Herbicidal rate of 40% or more and less than 70%) | 5 (Herbicidal rate of 90% or more (almost completely withered)) | – | 5 (Herbicidal rate of 90% or more (almost completely withered)) | – | – | 5 (Herbicidal rate of 90% or more (almost completely withered)) | – | – | 5 (Herbicidal rate of 90% or more (almost completely withered)) | 5 (Herbicidal rate of 90% or more (almost completely withered)) | 5 (Herbicidal rate of 90% or more (almost completely withered)) | herbicidal effect, R: persian speedwell [1]: 5 (Herbicidal rate of 90% or more (almost completely withered)); herbicidal effect on H: barnyard grass ([2]; amount of applied herbicide 320 g/ha): 5 (Herbicidal rate of 90% or more (almost completely withered)); herbicidal effect, L: windgrass [5]: 5 (Herbicidal rate of 90% or more (almost completely withered)); herbicidal effect, M: velvetleaf [6]: 4 (Herbicidal rate of 70% or more and less than 90%); herbicidal effect, H: barnyard grass [7]: 5 (Herbicidal rate of 90% or more (almost completely withered)); herbicidal effect, K: Italian ryegrass [8]: 2 (Herbicidal rate of 20% or more and less than 40%); herbicidal effect, O: lambsquarters [13]: 5 (Herbicidal rate of 90% or more (almost completely withered)); L: windgrass, herbicidal effect grade [14]: 5 (Herbicidal rate of 90% or more (almost completely withered)); herbicidal effect, P: chickweed [16]: 5 (Herbicidal rate of 90% or more (almost completely withered)); R: persian speedwell, herbicidal effect grade [17]: 5 (Herbicidal rate of 90% or more (almost completely withered))
Cc1nn(C)c(=O)c(-c2c(-c3ccc(Cl)c(F)c3)sc3c(F)cccc23)c1O [4-054] | 4 (Herbicidal rate of 70% or more and less than 90%) | 2 (Herbicidal rate of 20% or more and less than 40%) | 5 (Herbicidal rate of 90% or more (almost completely withered)) | 5 (Herbicidal rate of 90% or more (almost completely withered)) | 0 (Herbicidal rate of 5% or less (almost no effect)) | 0 (Herbicidal rate of 5% or less (almost no effect)) | 0 (Herbicidal rate of 5% or less (almost no effect)) | 0 (Herbicidal rate of 5% or less (almost no effect)) | 2 (Herbicidal rate of 20% or more and less than 40%) | 0 (Herbicidal rate of 5% or less (almost no effect)) | 3 (Herbicidal rate of 40% or more and less than 70%) | 3 (Herbicidal rate of 40% or more and less than 70%) | 1 (Herbicidal rate of 5% or more and less than 20%) | 0 (Herbicidal rate of 5% or less (almost no effect)) | 3 (Herbicidal rate of 40% or more and less than 70%) | 4 (Herbicidal rate of 70% or more and less than 90%) | 5 (Herbicidal rate of 90% or more (almost completely withered)) | – | – | – | –
